# Measured values from patent US7737159B2, “Antibacterial compounds” (Abbott Laboratories, priority 2004, dated 2010).
# Target: bacterial protein synthesis (S30 extract from quinolone-succeptable Streptococcus pneumoniae ATCC 46919)
# Experiment: Translation assay, firefly luciferase reporter system with S30 Streptococcus pneumoniae extract
# Assay type: biochemical
# Details: luciferase mRNA, read-out: IC50, concentration causing 50% inhibition of bacterial protein synthesis
# Procedure: Bacterial protein synthesis inhibitory activity of representative compounds of this invention having formula (I) and the commercially-available antibacterials in TABLE 2 was determined by translation assays using the firefly luciferase reporter system described by Murray et al., (2001), “Staphylococcus aureus Cell Extract Transcription-Translation Assay: Firefly Luciferase Reporter System for Evaluating Protein Translation Inhibitors,” Antimicrob. Agents Chemother. 45(6): 1900-1904, but replacing the Staphylococcus aureus S30 extract described therein with S30 Streptococcus pneumoniae extract from quinolone-succeptable Streptococcus pneumoniae ATCC 46919, and replacing plasmid coding for the luciferase gene with mRNA (encoding produced by in vitro transcription from the plasmid pAS10rbs3) which encoded the luciferase gene with an upstream Streptococcus pneumoniae promoter and Shine-Dalgarno site.
smiles,measurement,value
CC(=O)NC[C@H]1CN(c2ccc(N3CCOCC3)c(F)c2)C(=O)O1 [Linezolid],IC50,~3 µM
